In patent US10961215B2, “N-aryl and N-heteroaryl piperidine derivatives as liver X receptor beta agonists, compositions, and their use” (Merck Sharp & Dohme Corp., priority 2016, dated 2021):

What was measured:
[1] = target: T1, GST tagged LXRalpha LBD (ligand binding domain) (Homo sapiens, UniProt Q13133); experiment: LanthaScreen TR-FRET Liver X Receptor Coactivator Assay, LXR alpha-LBD (co-activator recruitment; IP and % Emax relative to T0901317); format: biochemical; settings: for LXR alpha IP (nM) / EC50: Inflection Point of co-activator recruitment, LXR alpha-LBD, TR-FRET; for Emax: efficacy at max dose in relation to reference T0901317, LXR alpha-LBD, read-out: LXR alpha actiivty at max dose (%)
T1 construct: purchased Invitrogen pv4655
T1 sequence (Q13133 209-447 limits assumed): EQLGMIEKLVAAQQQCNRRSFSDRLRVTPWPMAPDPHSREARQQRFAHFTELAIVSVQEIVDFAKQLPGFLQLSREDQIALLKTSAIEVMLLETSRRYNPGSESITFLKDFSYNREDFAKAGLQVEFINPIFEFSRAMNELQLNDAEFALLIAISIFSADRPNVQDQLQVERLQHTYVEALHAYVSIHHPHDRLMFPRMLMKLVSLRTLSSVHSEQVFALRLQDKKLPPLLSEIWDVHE
How it was run: (§1)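 Potency as inflection point and efficacy as Emax come from compound-driven coactivator peptide recruitment, scaled to T0901317, using a terbium/fluorescein TR-FRET format after room-temperature incubation.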

[2] = target: T2, GST tagged LXRbeta LBD (ligand binding domain) (Homo sapiens, UniProt P55055); experiment: LanthaScreen TR-FRET Liver X Receptor Coactivator Assay, LXR beta-LBD (co-activator recruitment; IP and % Emax relative to T0901317); format: biochemical; settings: for EC50: Inflection Point of co-activator recruitment, LXR beta-LBD, TR-FRET; for Emax: efficacy at max dose in relation to reference T0901317, LXR beta-LBD, read-out: LXR beta actiivty at max dose (%)
T2 construct: purchased Invitrogen pv4658.pps
T2 sequence (P55055 222-460 limits assumed): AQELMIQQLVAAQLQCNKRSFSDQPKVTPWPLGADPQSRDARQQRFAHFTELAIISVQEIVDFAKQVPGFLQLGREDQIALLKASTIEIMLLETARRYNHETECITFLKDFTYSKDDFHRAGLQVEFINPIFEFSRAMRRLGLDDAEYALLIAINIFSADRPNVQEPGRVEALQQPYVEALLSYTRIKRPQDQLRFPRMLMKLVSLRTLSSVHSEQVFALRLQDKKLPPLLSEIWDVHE
How it was run: as §1

Structure (SMILES)	LXR alpha IP (nM) [1]	Emax [1] [%]	EC50 [2] [nM]	Emax [2] [%]	EC50 [1] [nM]
COc1cccc([C@@](O)(C(=O)NC[C@@H]2C[C@@H]2C2CCN(c3ccc(C(=O)N(C)C)c(Cl)n3)CC2)C(F)(F)F)c1 [Example 15-10, 2-chloro-N,N-dimethyl-6-(4-((1R,2R)-2-(((R)-3,3,3-trifluoro-2-hydroxy-2-(3-methoxyphenyl)propanamido)methyl)cyclopropyl)piperidin-1-yl)nicotinamide]	No IP	4	442	38	
CNC(=O)c1ccc(N2CCC3(CC2)CC(CN(C)C(=O)[C@](O)(c2cccc(OC)c2)C(F)(F)F)C3)nc1Cl [Example 14-2, 2-chloro-N-methyl-6-(2-(((R)-3,3,3-trifluoro-2-hydroxy-2-(3-methoxyphenyl)-N-methylpropanamido)methyl)-7-azaspiro[3.5]nonan-7-yl)nicotinamide]	No IP	8	473	30	
COc1cccc([C@@](O)(C(=O)NCC[C@H]2CC23CCN(c2ccc(C(=O)N(C)C(C)C)c(Cl)c2)CC3)C(F)(F)F)c1 [Example 7-31, 2-chloro-N-isopropyl-N-methyl-4-((R)-1-(2-((R)-3,3,3-trifluoro-2-hydroxy-2-(3-methoxy-phenyl)propanamido)ethyl)-6-azaspiro[2.5]octan-6-yl)benzamide]	No IP	1	304	49	
CNC(=O)c1ccc(N2CCC([C@H]3C[C@H]3CNC(=O)[C@](O)(c3ccccc3)C(F)(F)F)CC2)nc1Cl [Example 15-12, 2-chloro-N-methyl-6-(4-((1R,2R)-2-(((R)-3,3,3-trifluoro-2-hydroxy-2-phenylpropanamido)methyl)cyclopropyl)piperidin-1-yl)nicotinamide]		29	1330	39	3780
CN(C)C(=O)c1ccc(N2CCC([C@H]3C[C@H]3CN(C)C(=O)[C@](O)(c3cc(Cl)cc(Cl)c3)C(F)(F)F)CC2)nc1Cl [Example 15-6, 2-chloro-6-(4-((1R,2R)-2-(((R)-2-(3,5-dichlorophenyl)-3,3,3-trifluoro-2-hydroxy-N-methylpropanamido)methyl)cyclopropyl)piperidin-1-yl)-N,N-dimethylnicotinamdie]	No IP	4	9	29	
CN(C)C(=O)c1ccc(N2CCC(CCCN(C)C(=O)[C@@](O)(c3ccccc3)C3CCC3)CC2)nc1Cl [Example 1-23, (S)-2-chloro-6-(4-(3-(2-cyclobutyl-2-hydroxy-N-methyl-2-phenylacetamido)propyl)piperidin-1-yl)-N,N-dimethylnicotinamide]		39	64	90	1760
CN(C)C(=O)c1ccc(N2CCC(CCCNC(=O)C3(c4ccccc4)CCC3)CC2)nc1Cl [Example 5-16, 2-chloro-N,N-dimethyl-6-(4-(3-(1-phenylcyclobutane-carboxamido)propyl)piperidin-1-yl)nicotinamide]		26	235	83	5220
CN(C)C(=O)c1ccc(N2CCC(CCCN(C)C(=O)[C@]3(C(F)(F)F)CCCO3)CC2)nc1Cl [Example 1-8, (S)-2-chloro-N,N-dimethyl-6-(4-(3-(N-methyl-2-(trifluoromethyl)-tetrahydrofuran-2-carboxamido)propyl)piperidin-1-yl)nicotinamide]		51	106	81	1770
CNC(=O)c1ccc(N2CCC3(CC2)CC(CCN(C)C(=O)[C@](O)(c2cccc(OC)c2)C(F)(F)F)C3)nc1Cl [Example 13-2, 2-chloro-N-methyl-6-(2-(2-((R)-3,3,3-trifluoro-2-hydroxy-2-(3-methoxyphenyl)-N-methylpropanamido)ethyl)-7-azaspiro[3.5]nonan-7-yl)nicotinamide]	No IP	1	142	49	
CN(C)C(=O)c1ccc(N2CCC([C@@H]3C[C@H]3CNC(=O)[C@@](O)(c3ccccc3)C(F)(F)F)CC2)nc1Cl [Example 15-13, 2-chloro-N,N-dimethyl-6-(4-((1S,2R)-2-(((S)-3,3,3-trifluoro-2-hydroxy-2-phenylpropanamido)methyl)cyclopropyl)piperidin-1-yl)nicotinamide]	No IP	17	542	84	
CN(C)C(=O)c1ccc(N2CCC([C@@H]3C[C@H]3CN(C)C(=O)[C@@](O)(c3ccccc3)C(F)(F)F)CC2)nc1Cl [Example 15-16, 2-chloro-N,N-dimethyl-6-(4-((1S,2R)-2-(((S)-3,3,3-trifluoro-2-hydroxy-N-methyl-2-phenylpropanamido)methyl)cyclopropyl)piperidin-1-yl)nicotinamide]	No IP	0	583	58	
COc1cccc([C@@](O)(C(=O)N(C)CCCC2(F)CCN(c3ccc(C(=O)N(C)C)c(Cl)c3)CC2)C(F)(F)F)c1 [Example 12-2, (R)-2-chloro-4-(4-fluoro-4-(3-(3,3,3-trifluoro-2-hydroxy-2-(3-methoxyphenyl)-N-methylpropanamido)propyl)piperidin-1-yl)-N,N-dimethylbenzamide]	No IP	4	218	25	
COc1cccc([C@@](O)(C(=O)NC[C@H](F)CC2CCN(c3ccc(C(=O)N(C)C)c(Cl)n3)CC2)C(F)(F)F)c1 [Example 3-7, 2-chloro-6-(4-((R)-2-fluoro-3-((R)-3,3,3-trifluoro-2-hydroxy-2-(3-methoxy-phenyl)propanamido)propyl)piperidin-1-yl)-N,N-dimethylnicotinamide]	No IP	13	425	94	
COc1cccc([C@@](O)(C(=O)N(C)CCCC2CCN(c3ccc(C(=O)N(C)C)c(C4CC4)n3)CC2)C(F)(F)F)c1 [Example 2-17, (R)-2-cyclopropyl-N,N-dimethyl-6-(4-(3-(3,3,3-trifluoro-2-hydroxy-2-(3-methoxyphenyl)-N-methylpropanamido)propyl)piperidin-1-yl)nicotinamide]	No IP	0	5730	22	
CN(C)C(=O)c1ccc(N2CCC(F)(CCCN(C)C(=O)[C@](O)(c3ccccc3)C(F)(F)F)CC2)nc1Cl [Example 12-4, (R)-2-chloro-6-(4-fluoro-4-(3-(3,3,3-trifluoro-2-hydroxy-N-methyl-2-phenylpropanamido)propyl)piperidin-1-yl)-N,N-dimethylnicotinamide]	No IP	0	266	46	
CN(C)C(=O)c1ccc(N2CCC(CCCNC(=O)[C@](O)(c3cccc(C4CC4)c3)C(F)(F)F)CC2)nc1Cl [Example 5-14, (R)-2-chloro-6-(4-(3-(2-(3-cyclopropylphenyl)-3,3,3-trifluoro-2-hydroxy-propanamido)propyl)piperidin-1-yl)-N,N-dimethylnicotinamide]	No IP	0	207	44	
CN(C)C(=O)c1ccc(N2CCC(CCCN(C)C(=O)C3(C(F)(F)F)CCCO3)CC2)nc1Cl (centres unmarked) [Example 1-56, 2-chloro-N,N-dimethyl-6-(4-(3-(N-methyl-2-(trifluoromethyl)tetrahydrofuran-2-carboxamido)propyl)piperidin-1-yl)nicotinamide]		43	168	80	2610
CC(C)C(O)(C(=O)NCCCC1CCN(c2ccc(C(=O)N(C)C)c(Cl)n2)CC1)C(F)(F)F (centres unmarked) [Example 5-7, 2-chloro-6-(4-(3-(2-hydroxy-3-methyl-2-(trifluoromethyl)butanamido)propyl)piperidin-1-yl)-N,N-dimethylnicotinamide]	No IP	27	636	106	
CN(C)C(=O)c1ccc(N2CCC([C@@H]3C[C@H]3CN(C)C(=O)[C@](O)(c3ccccc3)C(F)(F)F)CC2)nc1Cl [Example 15-15]		23	186	75	6070
CCOc1cccc([C@@](O)(C(=O)N(C)C[C@@H]2C[C@@H]2C2CCN(c3ccc(C(=O)N(C)C)c(Cl)n3)CC2)C(F)(F)F)c1 [Example 15-1, 2-chloro-6-(4-((1R,2R)-2-(((R)-2-(3-ethoxyphenyl)-3,3,3-trifluoro-2-hydroxy-N-methylpropanamido)methyl)cyclopropyl)piperidin-1-yl)-N,N-dimethylnicotinamide]	No IP	9	34	66	
